Test results as given in patent US20200397795A1, “PROPHYLACTIC TREATMENT OF VENOUS THROMBOEMBOLISM” (JANSSEN PHARMACEUTICALS, INC., priority 2019, published 2020).
Where “and” joins values, the source holds several entries; their conditions need not be identical. Identical values can stand only once.

Tests used:
[1] = system: bleeding events in patients hospitalized for acute medical illness; experiment: MAGELLAN (Study 1): safety, bleeding events and adverse events; assay type: in vivo, human; details: for Fatal bleeding events, number: Day 1 to 10; for Treatment-emergent fatal bleeding events, number: Day 1 to 35; for Pulmonary embolism confirmed (deaths), number: entire study duration; for Investigator-reported deaths, incidence / VTE-related deaths, incidence: entire study duration (Day 1 to 90); for Bleeding events that required blood transfusions of 2 units / Bleeding events that resulted in a fall of Hb to ≥2 g/dL / Investigator-reported TEAEs leading to permanent discontinuation of study drug: in vivo
Description: The safety component of Criteria for Evaluation was the primary safety endpoint of incidence of the composite of treatment-emergent major bleeding events and non-major clinically relevant bleeding events observed during treatment and not later than 2 days after the last intake of double-blind study drug.
The primary safety outcome of the study was the treatment-emergent clinically relevant bleeding events, which were a composite of treatment-emergent adjudicated major bleeding events and clinically relevant non-major bleeding events.
The safety analysis was performed on 7998 randomized subjects who received at least one dose of study drug, rivaroxaban (3997 subjects) or enoxaparin (4001 subjects).
The primary safety outcome of the study was the assessment of clinically relevant bleeding events, which are a composite of treatment-emergent adjudicated major bleeding events and clinically relevant non-major bleeding events.

[2] = system: coagulation parameters (PT, PiCT, D-dimer); experiment: MAGELLAN (Study 1): pharmacodynamics (PT, PiCT, D-dimer); assay type: in vivo, human; details: for Prothrombin time, overall median: full profile sampling
Protocol: (§1) Full profile pharmacodynamics (PD) sampling was performed in parallel to the PK samples on Day 1 and Day 10. In addition, sparse PD sampling was performed in nearly all subjects at 5 predefined time points: prior to study drug administration, around the time of peak plasma concentrations (2 to 4 hours after intake of the rivaroxaban tablet or rivaroxaban placebo tablet) on the first, 10th and 35th day of study drug administration, and before study drug administration on Day 10.
Coagulation parameters assessed included international normalized ratio (INR), prothrombin time (PT), prothrombinase-induced clotting time (PiCT), and the fibrin degradation product, D-dimer. Pharmacodynamic parameters assessed included changes to baseline of the maximal effect (Emax) and changes to baseline at trough (Etrough).
as §1, with “Two sets of samples were evaluated for PD parameters: Full” for “Full”, “PD” for “pharmacodynamics (PD)”, “sampling” for “sampling was performed”, “approximately” for “around”

[3] = system: bleeding events in MAGELLAN subpopulation; experiment: Retrospective analysis of MAGELLAN subpopulation: safety (bleeding); assay type: in vivo
Description: Using key exclusion criteria from Study 2: MARINER to exclude subjects with a higher risk of bleeding, a subpopulation of Study 1: MAGELLAN was retrospectively analyzed to re-evaluate benefit-risk in this subpopulation, which included efficacy endpoints of symptomatic VTE and VTE-related death and safety endpoints of major bleeding events. The key exclusion criteria from Study 2: MARINER that were retrospectively applied to the Study 1: MAGELLAN population for this analysis included: active gastroduodenal ulcer within 3 months of randomization/currently symptomatic; any bleeding within 3 months prior to randomization or during index hospitalization; active cancer at randomization; medical history of severe bronchiectasis/pulmonary cavitation; or dual antiplatelet therapy at baseline. Subjects that met one or more of these criteria prior to or at randomization using standardized MedDRA queries or preferred terms of MedDRA version 13.1 based on data entered into the case report forms in the original MAGELLAN database were excluded from the subpopulation analysis.
The MAGELLAN study (Study 1) randomized 8,101 patients from 562 sites in 52 countries and the safety population of patients that received at least one dose of study medication was 7,998 patients. The five key risk factors for major bleeding events in MAGELLAN were identified using study data forms as described herein. With the retrospective use of these risk factors, 1,551 patients were excluded from MAGELLAN and the remaining 6,447 patients, approximately 80% of MAGELLAN, represented the subpopulation. Patients in both treatment groups had no differences in baseline characteristics, and had similar medical histories, with at least 99% of patients having complete immobility or decreased mobility and median total number of days in hospital of 10.

[4] = rivaroxaban-enoxaparin phase (Day 1 to 10)
[5] = rivaroxaban-enoxaparin/placebo phase (Day 1 to 35)
[6] = rivaroxaban-placebo phase (Day 10 to 35)
[7] = acute respiratory insufficiency, Baseline
[8] = acute respiratory insufficiency, Day 1 peak
[9] = acute respiratory insufficiency, Day 10 peak
[10] = acute respiratory insufficiency, Day 10 trough
[11] = entire study population, Baseline
[12] = entire study population, Day 1 peak
[13] = entire study population, Day 10 peak
[14] = entire study population, Day 35 peak
[15] = post-discharge phase, entire population and subpopulation

Compound: Enoxaparin
- Fatal bleeding events, number ([1]; entire population): 1 cases
- Treatment-emergent fatal bleeding events, number [1]: 1 subjects
- Major bleeding events, incidence ([1]; Day 1 to Day 10): 0.3%
- Investigator-reported SAEs, incidence ([1]; Day 1 to Day 35): 0.8%
- Investigator-reported TEAEs, incidence ([1]; Day 1 to Day 35): 8.5%
- Investigator-reported drug-related TEAEs, incidence ([1]; Day 1 to Day 35): 4.2%
- Major bleeding events, incidence ([1]; Day 1 to Day 35): 0.4%
- Pulmonary bleeding site (critical site bleeding), incidence ([1]; Day 1 to Day 35): 0%
- Retroperitoneal bleeding site (critical site bleeding), incidence ([1]; Day 1 to Day 35): 0%
- Clinically relevant non-major bleeding events, incidence ([1]; all phases of the study): 2.1%
- Major bleeding events, incidence ([1]; all phases of the study): 0.9%
- Minimal bleeding events, incidence ([1]; all phases of the study): 8.2%
- Pulmonary embolism confirmed (deaths), number [1]: 1 subjects
- Investigator-reported deaths, incidence [1]: 6.5%
- VTE-related deaths, incidence [1]: 1.2%
- Major bleeding events, incidence ([1]; follow-up phase): 0.6%
- Bleeding events that required blood transfusions of 2 units [1]: 0.2%
- Bleeding events that resulted in a fall of Hb to ≥2 g/dL [1]: 0.2%
- Investigator-reported TEAEs leading to permanent discontinuation of study drug [1]: 1.5%
- Clinically relevant bleeding events, incidence [1, 4]: 1.2%
- Clinically relevant bleeding events, incidence [1, 5]: 1.7%
- Clinically relevant bleeding events, incidence [1, 6]: 0.5%
- Baseline value expressed in IU/mL (PiCT two step) ([2]; Day 1): below the lower limit of quantitation
- Mean peak concentration expressed in IU/mL (PiCT two step) ([2]; Day 1): 0.32 IU/mL
- Mean peak concentration expressed in IU/mL (PiCT two step) ([2]; Day 10): 0.31 IU/mL
- Trough concentration expressed in IU/mL (PiCT two step) ([2]; Day 10): 0.11 IU/mL
- D-dimer, median [2, 7]: 0.57 µg/mL
- D-dimer, median [2, 8]: 0.66 µg/mL
- D-dimer, median [2, 9]: 0.70 µg/mL
- D-dimer, median [2, 10]: 0.46 µg/mL
- D-dimer, median [2, 11]: 0.95 µg/mL
- D-dimer, median [2, 12]: 0.94 µg/mL
- D-dimer, median [2, 13]: 0.66 µg/mL
- D-dimer, median [2, 14]: 0.67 µg/mL
- Influence on prothrombin time ([2]; in vivo): no influence
- Change in clotting time, PiCT one step ([2]; sparse sampling): No change
- Prothrombin time, median ([2]; sparse sampling, Baseline): 14.4 s
- Prolongation of PiCT two step assay ([2]; sparse sampling, Day 1): 23.6 s
- Prothrombin time, median ([2]; sparse sampling, Day 1 peak): 14.8 s
- Prolongation of PiCT two step assay ([2]; sparse sampling, Day 10): 19.8 s
- Prothrombin time, median ([2]; sparse sampling, Day 10 peak): 14.2 s
- Prothrombin time, median ([2]; sparse sampling, Day 35 peak): 13.8 s
- Fatal bleeds, number [3, 15]: 0
- Fatal bleeds, number ([3]; subpopulation, Day 10): 1
- Clinically relevant bleeding (major and NMCR), incidence ([3]; subpopulation, Day 35): 1.5%
- Major bleeding, incidence ([3]; subpopulation, through Day 35): 0.47%

Compound: O=C(NC[C@H]1CN(c2ccc(N3CCOCC3=O)cc2)C(=O)O1)c1ccc(Cl)s1 [Rivaroxaban, 5-chloro-N-({(5S)-2-oxo-3-[4-(3-oxo-4-morpholinyl)phenyl]-1,3,oxazolidin-5-yl}methyl)-2-thiophenecarboxamide]
- Fatal bleeding events, number ([1]; entire population): 5 cases
- Treatment-emergent fatal bleeding events, number [1]: 7 subjects
- Major bleeding events, incidence ([1]; Day 1 to Day 10): 0.6%
- Intracranial bleeding site (critical site bleeding), incidence ([1]; Day 1 to Day 35): 0.1%
- Investigator-reported SAEs, incidence ([1]; Day 1 to Day 35): 2.0%
- Investigator-reported TEAEs, incidence ([1]; Day 1 to Day 35): 12.5%
- Investigator-reported drug-related TEAEs, incidence ([1]; Day 1 to Day 35): 6.9%
- Major bleeding events, incidence ([1]; Day 1 to Day 35): 1.1%
- Major bleeding events, incidence ([1]; Day 10 to Day 35): 0.5%
- Clinically relevant non-major bleeding events, incidence ([1]; all phases of the study): 4.0%
- Major bleeding events, incidence ([1]; all phases of the study): 1.6%
- Minimal bleeding events, incidence ([1]; all phases of the study): 9.6%
- Major bleeding, RR vs enoxaparin-placebo ([1]; entire MAGELLAN population, through Day 35): 2.87
- Fatal bleeds, incidence ([1]; entire population, Day 10): 0.1%
- Major bleeding, relative risk ([1]; entire population, Day 10): 2.18
- Fatal bleeds, incidence ([1]; entire population, Day 35): 0.2%
- Pulmonary embolism confirmed (deaths), number [1]: 2 subjects
- Investigator-reported deaths, incidence [1]: 7.0%
- VTE-related deaths, incidence [1]: 1.0%
- Major bleeding events, incidence ([1]; follow-up phase): 0.6%
- Bleeding events that required blood transfusions of 2 units [1]: 0.6%
- Bleeding events that resulted in a fall of Hb to ≥2 g/dL [1]: 0.8%
- Investigator-reported TEAEs leading to permanent discontinuation of study drug [1]: 3.1%
- Clinically relevant bleeding events, incidence [1, 4]: 2.8%
- Relative risk, clinically relevant bleeding [1, 4]: 2.272
- Clinically relevant bleeding events, incidence [1, 5]: 4.1%
- Relative risk, clinically relevant bleeding [1, 5]: 2.46 and 2.455
- Clinically relevant bleeding events, incidence [1, 6]: 1.4%
- Relative risk, clinically relevant bleeding [1, 6]: 2.958
- Mean peak concentration expressed in IU/mL (PiCT two step) ([2]; Day 1): below the lower limit of quantitation
- Mean peak concentration of rivaroxaban (PiCT one step) ([2]; Day 1): 198.8 µg/L
- Mean peak concentration expressed in IU/mL (PiCT two step) ([2]; Day 10): below the lower limit of quantitation
- Mean peak concentration of rivaroxaban (PiCT one step) ([2]; Day 10): 202.78 µg/L
- Mean peak concentration of rivaroxaban (PiCT one step) ([2]; Day 35): 168 µg/L
- D-dimer, median ([2]; acute infectious disease, Baseline): 1.76 µg/mL
- D-dimer, median ([2]; acute infectious disease, Day 1 peak): 2.07 µg/mL
- D-dimer, median ([2]; acute infectious disease, Day 10 peak): 2.13 µg/mL
- D-dimer, median ([2]; acute infectious disease, Day 10 trough): 1.74 µg/mL
- D-dimer, median [2, 7]: 1.48 µg/mL
- D-dimer, median [2, 8]: 1.44 µg/mL
- D-dimer, median [2, 9]: 1.37 µg/mL
- D-dimer, median [2, 10]: 1.18 µg/mL
- D-dimer, median [2, 11]: 0.94 µg/mL
- D-dimer, median [2, 12]: 0.90 µg/mL
- D-dimer, median [2, 13]: 0.64 µg/mL
- D-dimer, median [2, 14]: 0.45 µg/mL
- Prothrombin time, overall median ([2]; peak Day 1): 23.5 s
- Prothrombin time, overall median ([2]; peak Day 10): 23.2 s
- Change in clotting time, PiCT two step ([2]; sparse sampling): No change
- Prothrombin time, median ([2]; sparse sampling, Baseline): 14.3 s
- Prolongation of PiCT one step assay ([2]; sparse sampling, Day 1): 14.6 s
- Prothrombin time, median ([2]; sparse sampling, Day 1 peak): 19.3 s
- Prolongation of PiCT one step assay ([2]; sparse sampling, Day 10): 13.1 s
- Prothrombin time, median ([2]; sparse sampling, Day 10 peak): 19.3 s
- Prothrombin time, median ([2]; sparse sampling, Day 35 peak): 18.6 s
- Major bleeding, relative risk ([3]; human, in vivo, 10 day): 1.19
- Clinically relevant bleeding (major and NMCR), incidence ([3]; human, in vivo, 35 day): 3.5%
- Clinically relevant bleeding, RR vs enoxaparin ([3]; human, in vivo, 35 day): 2.35
- Major bleeding, RR vs enoxaparin-placebo ([3]; human, in vivo, 35 day): 1.48
- Major bleeding, incidence ([3]; human, in vivo, 35 day): 0.68%
- Fatal bleeds, number [3, 15]: 2
- Fatal bleeds, incidence ([3]; subpopulation, Day 10): less than 0.1%
- Fatal bleeds, number ([3]; subpopulation, Day 10): 1
- Fatal bleeds, incidence ([3]; subpopulation, Day 35): less than 0.1%
